Test results as given in patent US12011433B2 (UNIVERSITÁ DEGLI STUDI DI BARI “ALDO MORO”, priority 2016, dated 2024).
Where two headings read alike, the source gives them in different places.

Tests used:
[1] = GALMOF0 chemical stability in buffers by HPLC; type: physicochemical; details: pH 1, 3, 7.3 and 8, 37° C., till 60 min
Experimental: HPLC analyses were performed to determine the chemical stability and the purity grade of GALMOF0 as a representative compound of the set.
Aminica column was used, CH3CN/10 mM Tris-HCl (pH=8) (15:85) was used as mobile phase, T=40° C.; λ=254 nm.
200 μL of 2.5 mg/mL di GALMOF0 in CH3CN were added to 1800 μL of a buffer (pH=1, 3, 7.3 and 8). Each sample was kept stirred at 37° C. Buffer with pH=1 and 3, obtained with 0.1N HCl and 50 mM HEPES, was selected to simulate the chemical stability at gastric level, whereas pH=7.3 and 8, obtained by 50 mM TRIS-HCl, simulated its stability in the blood and gut, respectively.
At 15, 30, 60 min and 48 h, 300 μL of the sample were withdraw, diluted with 300 μL of CH3CN (final concentration=[…]) and tested by HPLC.

[2] = test system: GLUT-1; experiment: Caco-2 monolayer efflux assay, Apparent Permeability (Papp), with or without GLUT-1 inhibitor phloretin; type: in vitro ADME, Human; details: human
Experimental: (§1) In a monolayer efflux assay, the Apparent Permeability (Papp) in both basolateral to apical [Papp(B→A)] and apical to basolateral [Papp(A→B)] directions was determined for each compound (FIG. 2). Human colonic adenocarcinoma cell line (Caco-2) presents a facilitated transport system at the apical and basolateral surface. Caco-2 cells express high levels of GLUT-1 that are localized to the basolateral membrane and transport glucose to the serosal side.
(§2) The Papp(B→A) flux of each compound alone or in the presence of phloretin, a GLUT-1 inhibitor, has been determined. Since GLUT-1 is express in the basolateral compartment a high B→A flux means that the transport is GLUT-1 mediated because B→A flux represents the active transport.
(§3) A→B flux, which represents the passive transport, has also been determined for each compound (Table 2).

[3] = test system: Caco-2 cells; experiment: as above; type: in vitro ADME, Human
Experimental: as §1, §2, §3

[4] = biological target: COX-2 (Homo sapiens, UniProt P35354); experiment: colorimetric COX Inhibitor screening Assay (peroxidase component, oxidized TMPD at 590 nm); type: biochemical
Experimental: Human cyclooxygenase inhibitory activity was determined by a colorimetric COX Inhibitor screening Assay which measures the peroxidase component of the cyclooxygenases, monitoring the appearance of oxidized N,N,N′,N′-tetramethyl-p-phenylenediamine (TMPD) at 590 nm.

[5] = GALMOF0 metabolic stability, incubation with rat liver microsomes; type: in vitro ADME
Experimental: GALMOF0 metabolic stability was determined through its incubation with rat liver microsomes and monitoring the disappearance of its chromatogram peak within 30 min.
The in vitro test was carried out in the presence of rat liver S9 fraction (Tebu-bio, Milan, Italy).
Briefly, GALMOF0 (10 μM) in 100 mM of phosphate buffer (pH=7.4) was mixed with the NADPH regeneration system to a final concentration of 1.3 mM NADP^+, 3.3 mM glucose 6-phosphate and 0.4 U/ml glucose 6-phosphate dihydrogenase and 3.3 mM MgCl2. The experiment started with the addition of rat microsomes (1 mg/ml) that were incubated for 30 min at 37° C. The reaction was blocked by adding an equal volume of cold CH3CN. The samples were centrifuged at 4,600 rpm for 15 min at 4° C. The supernatant was separated and the organic phase analysed by HPLC in the same conditions used for the samples of the “chemical stability study”.
The residual GALMOF0 percentage after 30 min was calculated according the following equation: Residual GALMOF0(%) at 30 min=Cmicr+NADPH/Cmicr×100 where Cmicr+NADPH is the GALMOF0 concentration after the incubation with the microsomes and the NADPH regeneration system (FIG. 8); Cmicr is the GALMOF0 concentration after the incubation with only the microsomes (FIG. 9).

Sequence of COX-2 (P35354 18-604 limits assumed): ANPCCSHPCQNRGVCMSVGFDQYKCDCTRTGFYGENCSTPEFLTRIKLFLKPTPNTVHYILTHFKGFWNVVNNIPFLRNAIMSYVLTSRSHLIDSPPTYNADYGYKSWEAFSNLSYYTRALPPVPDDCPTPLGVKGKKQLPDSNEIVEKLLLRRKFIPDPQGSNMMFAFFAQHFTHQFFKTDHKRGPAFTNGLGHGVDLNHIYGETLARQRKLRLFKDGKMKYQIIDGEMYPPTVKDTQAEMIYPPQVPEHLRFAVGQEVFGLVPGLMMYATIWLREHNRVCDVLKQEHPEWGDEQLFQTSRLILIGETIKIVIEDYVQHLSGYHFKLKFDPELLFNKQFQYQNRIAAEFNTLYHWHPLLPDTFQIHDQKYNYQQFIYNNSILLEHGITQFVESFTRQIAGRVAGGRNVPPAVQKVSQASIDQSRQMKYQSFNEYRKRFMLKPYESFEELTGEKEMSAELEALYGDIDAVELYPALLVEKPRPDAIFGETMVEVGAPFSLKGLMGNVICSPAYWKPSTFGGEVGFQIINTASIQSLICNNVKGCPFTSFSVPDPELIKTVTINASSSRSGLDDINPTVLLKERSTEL

## COc1ccc(-c2noc(CC(=O)OCC3OC(O)C(O)C(O)C3O)c2-c2ccc(OC)cc2)cc1 [GALMOF0, ((2S,3R,4S,6R)-3,4,5,6-tetrahydroxytetrahydro-2H-pyrano-2-yl-) methyl-(2-(3,4-di(4-metoxyphenyl)isoxazol-5-yl)acetate]
[1]
  chemical stability, chromatogram profile: no variation of the chromatogram profile was observed
[2]; compound alone, read-out: Papp A → B
  Papp A→B: 38 ×10⁻⁶ cm/s
[2]; compound alone, read-out: Papp B → A
  Papp B→A: 87.5 ×10⁻⁶ cm/s
[2]; with phloretin (GLUT-1 inhibitor), in Phloretin, read-out: Papp A → B, Phloretin
  Papp A→B: 36.8 ×10⁻⁶ cm/s
[2]; with phloretin (GLUT-1 inhibitor), in Phloretin, read-out: Papp B → A, Phloretin
  Papp B→A: 61 ×10⁻⁶ cm/s
[3]; in the presence of 100 mM Phloretin
  Papp B → A, Phloretin: 61 ×10⁻⁶ cm/s
[3]; phloretin vs alone
  reduction of the basolateral to apical flux (Papp B→A) in the presence of phloretin: 30%
[4]; at 50 μM, the highest concentration tested
  inhibition at 50 µM: 87%
[4]; human cyclooxygenase
  IC50: 3.1 µM
[5]; incubated with only the microsomes, 30 min
  Cmicr, concentration after the incubation: 70.51 mAU*s
[5]; incubated with the microsomes and the NADPH regeneration system, 30 min
  Cmicr+NADPH, concentration after the incubation: 68.02 mAU*s
[5]; rat liver microsomes 1 mg/ml, NADPH regeneration system, 10 μM, 37° C.
  residual GALMOF0 after 30 min of treatment with microsomes: 96%
